Activity data for two molecules are collected here from ChEMBL document CHEMBL5696441 (Nat Chem Biol, 2011).

Assay [1] deals with Protein kinase C eta type (Homo sapiens) (UniProt P24723). The experiment in a line: Inhibition of PRKCH (unknown origin) assessed as remaining activity at 1 uM by Kinome scan method relative to control.
In assay [2] the target is Serine/threonine-protein kinase 36 (Homo sapiens) (UniProt Q9NRP7). The experiment in a line: Inhibition of STK36 (unknown origin) assessed as remaining activity at 1 uM by Kinome scan method relative to control.
Assay [3] has as its target Ribosomal protein S6 kinase alpha-4 (Homo sapiens) (UniProt O75676). Briefly: Inhibition of N-terminal kinase domain RPS6KA4 (unknown origin) assessed as remaining activity at 1 uM by Kinome scan method relative to control.
Assay [4] has as its target Serine/threonine-protein kinase 26 (Homo sapiens) (UniProt Q9P289). Briefly: Inhibition of MST4 (unknown origin) assessed as remaining activity at 1 uM by Kinome scan method relative to control.
Assay [5] deals with Phosphatidylinositol 4,5-bisphosphate 3-kinase catalytic subunit gamma isoform (Homo sapiens) (UniProt P48736). Briefly: Inhibition of PIK3CG (unknown origin) assessed as remaining activity at 1 uM by Kinome scan method relative to control.
Assay [6] deals with Serine/threonine-protein kinase MRCK beta (Homo sapiens) (UniProt Q9Y5S2). The experiment in a line: Inhibition of MRCKB (unknown origin) assessed as remaining activity at 1 uM by Kinome scan method relative to control.
In assay [7] the target is Ribosomal protein S6 kinase alpha-3 (Homo sapiens) (UniProt P51812). Briefly: Inhibition of N-terminal kinase domain RPS6KA3 (unknown origin) assessed as remaining activity at 1 uM by Kinome scan method relative to control.
In assay [8] the target is Cyclin-dependent kinase 9 (Homo sapiens) (UniProt P50750). The experiment in a line: Inhibition of CDK9 (unknown origin) assessed as remaining activity at 1 uM by Kinome scan method relative to control.
Assay [9] has as its target Serine/threonine-protein kinase STK11 (Homo sapiens) (UniProt Q15831). Briefly: Inhibition of LKB1 (unknown origin) assessed as remaining activity at 1 uM by Kinome scan method relative to control.
Assay [10] addresses Tyrosine-protein kinase JAK2 (Homo sapiens) (UniProt O60674). Briefly: Inhibition of JAK2 JH1 domain (unknown origin) assessed as remaining activity at 1 uM by Kinome scan method relative to control.
In assay [11] the target is Mitogen-activated protein kinase 8 (Homo sapiens) (UniProt P45983). The experiment in a line: Inhibition of JNK1 (unknown origin) assessed as remaining activity at 1 uM by Kinome scan method relative to control.
Assay [12] deals with Cyclin-dependent kinase 11A (Homo sapiens) (UniProt Q9UQ88). Briefly: Inhibition of CDC2L2 (unknown origin) assessed as remaining activity at 1 uM by Kinome scan method relative to control.
For assay [13], the target named is Serine/threonine-protein kinase SIK2 (Homo sapiens) (UniProt Q9H0K1). Briefly: Inhibition of SIK2 (unknown origin) assessed as remaining activity at 1 uM by Kinome scan method relative to control.
Assay [14] addresses Non-receptor tyrosine-protein kinase TNK1 (Homo sapiens) (UniProt Q13470). Briefly: Inhibition of TNK1 (unknown origin) assessed as remaining activity at 1 uM by Kinome scan method relative to control.
The target in assay [15] is Serine/threonine-protein kinase ICK (Homo sapiens) (UniProt Q9UPZ9). Briefly: Inhibition of ICK (unknown origin) assessed as remaining activity at 1 uM by Kinome scan method relative to control.
The species entered for assay [16] is Homo sapiens. Briefly: Inhibition of ACVR1a (unknown origin) assessed as remaining activity at 1 uM by Kinome scan method relative to control.
The target in assay [17] is Non-receptor tyrosine-protein kinase TYK2 (Homo sapiens) (UniProt P29597). The experiment in a line: Inhibition of TYK2 JH1 domain (unknown origin) assessed as remaining activity at 1 uM by Kinome scan method relative to control.
In assay [18] the target is Cyclin-dependent kinase 2 (Homo sapiens) (UniProt P24941). Briefly: Inhibition of CDK2 (unknown origin) assessed as remaining activity at 1 uM by Kinome scan method relative to control.
Assay [19] deals with Insulin receptor-related protein (Homo sapiens) (UniProt P14616). Briefly: Inhibition of INSRR (unknown origin) assessed as remaining activity at 1 uM by Kinome scan method relative to control.
For assay [20], the target named is Mitogen-activated protein kinase 4 (Homo sapiens) (UniProt P31152). Briefly: Inhibition of ERK4 (unknown origin) assessed as remaining activity at 1 uM by Kinome scan method relative to control.
The target of assay [21] is T1, Serine/threonine-protein kinase PLK4 (Homo sapiens) (UniProt O00444).
T1 sequence (whole entry): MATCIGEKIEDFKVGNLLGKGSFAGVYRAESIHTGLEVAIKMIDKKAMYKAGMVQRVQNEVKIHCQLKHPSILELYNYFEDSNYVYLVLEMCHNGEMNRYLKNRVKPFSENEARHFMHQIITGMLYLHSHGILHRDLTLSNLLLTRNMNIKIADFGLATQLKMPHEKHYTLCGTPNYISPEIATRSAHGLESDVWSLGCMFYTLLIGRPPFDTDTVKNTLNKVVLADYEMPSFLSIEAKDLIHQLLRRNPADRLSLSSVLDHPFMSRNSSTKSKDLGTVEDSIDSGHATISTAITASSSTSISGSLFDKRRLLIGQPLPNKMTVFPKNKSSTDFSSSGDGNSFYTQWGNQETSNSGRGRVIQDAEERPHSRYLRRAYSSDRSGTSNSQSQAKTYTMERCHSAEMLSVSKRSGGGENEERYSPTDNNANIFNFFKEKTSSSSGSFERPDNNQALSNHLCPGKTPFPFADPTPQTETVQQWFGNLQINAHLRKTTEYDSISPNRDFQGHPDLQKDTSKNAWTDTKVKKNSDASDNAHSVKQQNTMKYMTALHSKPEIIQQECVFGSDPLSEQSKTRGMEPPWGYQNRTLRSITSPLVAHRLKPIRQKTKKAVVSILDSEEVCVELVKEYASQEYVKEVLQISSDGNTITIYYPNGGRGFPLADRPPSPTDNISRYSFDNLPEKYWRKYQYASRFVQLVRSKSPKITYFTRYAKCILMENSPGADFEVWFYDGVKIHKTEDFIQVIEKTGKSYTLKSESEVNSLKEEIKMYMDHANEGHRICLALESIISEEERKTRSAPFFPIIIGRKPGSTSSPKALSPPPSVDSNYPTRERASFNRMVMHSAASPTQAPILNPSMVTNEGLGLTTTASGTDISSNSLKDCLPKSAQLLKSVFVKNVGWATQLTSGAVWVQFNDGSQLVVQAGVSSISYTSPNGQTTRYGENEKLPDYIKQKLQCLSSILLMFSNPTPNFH
Briefly: Inhibition of PLK4 (unknown origin) assessed as remaining activity at 1 uM by Kinome scan method relative to control.

Assay [22] deals with 5'-AMP-activated protein kinase catalytic subunit alpha-2 (Homo sapiens) (UniProt P54646). The experiment in a line: Inhibition of AMPK-alpha2 (unknown origin) assessed as remaining activity at 1 uM by Kinome scan method relative to control.
Chain of 5'-AMP-activated protein kinase catalytic subunit alpha-2 (Homo sapiens) (P54646 whole entry, looked up): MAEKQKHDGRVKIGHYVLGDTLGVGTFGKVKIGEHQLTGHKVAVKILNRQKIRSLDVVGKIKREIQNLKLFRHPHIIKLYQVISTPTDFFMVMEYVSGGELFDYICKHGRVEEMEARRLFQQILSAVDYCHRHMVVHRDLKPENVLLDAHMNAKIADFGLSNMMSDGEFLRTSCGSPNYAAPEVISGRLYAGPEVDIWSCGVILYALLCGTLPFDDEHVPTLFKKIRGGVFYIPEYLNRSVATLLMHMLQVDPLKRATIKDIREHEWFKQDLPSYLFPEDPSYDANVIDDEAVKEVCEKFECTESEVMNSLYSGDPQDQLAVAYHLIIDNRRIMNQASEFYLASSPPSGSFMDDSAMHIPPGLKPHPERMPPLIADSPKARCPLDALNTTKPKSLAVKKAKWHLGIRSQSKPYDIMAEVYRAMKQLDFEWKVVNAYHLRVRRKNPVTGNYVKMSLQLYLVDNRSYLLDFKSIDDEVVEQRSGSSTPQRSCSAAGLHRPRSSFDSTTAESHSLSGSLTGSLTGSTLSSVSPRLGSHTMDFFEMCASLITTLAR

Chain of Non-receptor tyrosine-protein kinase TYK2 (Homo sapiens) (P29597 whole entry, the tested form may be a part): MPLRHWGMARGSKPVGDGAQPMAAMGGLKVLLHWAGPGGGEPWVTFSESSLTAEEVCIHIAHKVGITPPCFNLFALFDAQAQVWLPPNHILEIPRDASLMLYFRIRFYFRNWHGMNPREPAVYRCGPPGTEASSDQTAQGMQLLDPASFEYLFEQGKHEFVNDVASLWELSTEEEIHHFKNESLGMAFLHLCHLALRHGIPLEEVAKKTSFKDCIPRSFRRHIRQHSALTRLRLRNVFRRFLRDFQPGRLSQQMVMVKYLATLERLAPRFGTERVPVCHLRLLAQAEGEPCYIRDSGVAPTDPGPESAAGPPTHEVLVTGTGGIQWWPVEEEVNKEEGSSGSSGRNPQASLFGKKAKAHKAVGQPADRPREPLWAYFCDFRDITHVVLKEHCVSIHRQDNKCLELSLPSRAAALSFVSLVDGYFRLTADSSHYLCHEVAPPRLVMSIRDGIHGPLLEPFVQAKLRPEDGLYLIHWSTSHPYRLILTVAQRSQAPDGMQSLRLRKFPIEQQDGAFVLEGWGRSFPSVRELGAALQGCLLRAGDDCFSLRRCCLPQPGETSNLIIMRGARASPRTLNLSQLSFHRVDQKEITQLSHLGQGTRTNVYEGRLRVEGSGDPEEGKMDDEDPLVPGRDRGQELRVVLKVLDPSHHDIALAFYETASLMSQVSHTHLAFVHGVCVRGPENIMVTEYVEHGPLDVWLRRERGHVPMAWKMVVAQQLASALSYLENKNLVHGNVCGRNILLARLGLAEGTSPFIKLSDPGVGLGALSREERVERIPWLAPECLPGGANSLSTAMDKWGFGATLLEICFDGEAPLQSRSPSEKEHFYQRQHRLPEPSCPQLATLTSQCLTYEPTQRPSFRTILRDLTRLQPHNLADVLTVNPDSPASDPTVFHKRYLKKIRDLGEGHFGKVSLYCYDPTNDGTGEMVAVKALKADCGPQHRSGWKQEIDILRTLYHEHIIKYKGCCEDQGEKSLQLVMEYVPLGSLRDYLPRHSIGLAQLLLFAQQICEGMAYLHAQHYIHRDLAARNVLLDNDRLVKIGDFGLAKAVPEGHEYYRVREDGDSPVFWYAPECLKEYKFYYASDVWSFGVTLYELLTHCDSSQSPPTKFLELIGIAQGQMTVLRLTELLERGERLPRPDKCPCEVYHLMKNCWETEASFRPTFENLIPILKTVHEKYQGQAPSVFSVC
Chain of Mitogen-activated protein kinase 8 (Homo sapiens) (P45983 whole entry): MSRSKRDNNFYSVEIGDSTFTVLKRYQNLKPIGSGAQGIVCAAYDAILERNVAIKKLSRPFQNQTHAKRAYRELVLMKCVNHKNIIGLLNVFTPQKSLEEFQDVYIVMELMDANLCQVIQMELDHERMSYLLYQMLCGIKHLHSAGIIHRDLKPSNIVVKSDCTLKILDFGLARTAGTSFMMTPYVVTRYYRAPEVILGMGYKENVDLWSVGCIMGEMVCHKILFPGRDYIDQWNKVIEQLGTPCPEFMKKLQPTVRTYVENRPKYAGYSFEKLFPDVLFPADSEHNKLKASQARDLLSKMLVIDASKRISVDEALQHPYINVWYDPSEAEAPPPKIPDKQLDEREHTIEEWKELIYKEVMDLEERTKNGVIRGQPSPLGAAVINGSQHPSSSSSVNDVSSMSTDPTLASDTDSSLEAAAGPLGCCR
Chain of Serine/threonine-protein kinase 26 (Homo sapiens) (Q9P289 2-416 limits assumed): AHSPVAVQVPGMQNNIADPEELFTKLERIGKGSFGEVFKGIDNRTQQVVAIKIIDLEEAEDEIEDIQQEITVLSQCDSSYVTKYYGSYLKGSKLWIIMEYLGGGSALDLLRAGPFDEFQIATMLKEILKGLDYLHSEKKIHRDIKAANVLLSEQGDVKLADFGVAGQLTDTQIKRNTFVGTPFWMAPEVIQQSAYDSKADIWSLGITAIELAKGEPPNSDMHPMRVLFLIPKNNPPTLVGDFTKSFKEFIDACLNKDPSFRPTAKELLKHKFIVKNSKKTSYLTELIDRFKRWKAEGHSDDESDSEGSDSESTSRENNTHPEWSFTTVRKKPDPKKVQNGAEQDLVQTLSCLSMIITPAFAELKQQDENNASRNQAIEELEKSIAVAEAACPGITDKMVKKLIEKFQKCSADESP
Chain of Serine/threonine-protein kinase SIK2 (Homo sapiens) (Q9H0K1 whole entry, looked up): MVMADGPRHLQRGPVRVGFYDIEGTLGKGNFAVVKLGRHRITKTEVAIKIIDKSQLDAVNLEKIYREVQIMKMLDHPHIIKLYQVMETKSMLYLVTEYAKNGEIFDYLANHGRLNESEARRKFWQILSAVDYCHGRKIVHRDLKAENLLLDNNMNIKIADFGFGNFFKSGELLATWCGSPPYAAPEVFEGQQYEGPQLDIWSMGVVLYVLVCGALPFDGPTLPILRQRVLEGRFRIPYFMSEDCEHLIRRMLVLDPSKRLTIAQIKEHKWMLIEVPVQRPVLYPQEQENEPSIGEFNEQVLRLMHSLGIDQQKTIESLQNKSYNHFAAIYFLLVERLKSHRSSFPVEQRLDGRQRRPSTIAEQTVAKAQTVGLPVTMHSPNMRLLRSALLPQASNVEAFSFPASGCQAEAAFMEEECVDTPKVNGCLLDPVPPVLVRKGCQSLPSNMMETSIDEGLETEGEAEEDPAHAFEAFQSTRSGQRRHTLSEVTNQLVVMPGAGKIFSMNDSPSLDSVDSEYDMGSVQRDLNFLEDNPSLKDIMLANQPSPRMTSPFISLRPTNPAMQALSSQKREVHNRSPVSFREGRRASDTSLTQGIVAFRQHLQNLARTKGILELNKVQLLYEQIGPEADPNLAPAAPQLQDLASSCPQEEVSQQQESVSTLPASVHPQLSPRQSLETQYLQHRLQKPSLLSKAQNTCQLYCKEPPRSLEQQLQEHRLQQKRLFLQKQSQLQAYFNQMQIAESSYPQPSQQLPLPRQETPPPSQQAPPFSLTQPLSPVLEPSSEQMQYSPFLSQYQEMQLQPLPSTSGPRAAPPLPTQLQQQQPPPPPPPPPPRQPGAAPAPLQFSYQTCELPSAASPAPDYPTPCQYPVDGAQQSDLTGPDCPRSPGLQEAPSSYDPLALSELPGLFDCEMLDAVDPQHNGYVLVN
Chain of Phosphatidylinositol 4,5-bisphosphate 3-kinase catalytic subunit gamma isoform (Homo sapiens) (P48736 whole entry, looked up, canonical isoform): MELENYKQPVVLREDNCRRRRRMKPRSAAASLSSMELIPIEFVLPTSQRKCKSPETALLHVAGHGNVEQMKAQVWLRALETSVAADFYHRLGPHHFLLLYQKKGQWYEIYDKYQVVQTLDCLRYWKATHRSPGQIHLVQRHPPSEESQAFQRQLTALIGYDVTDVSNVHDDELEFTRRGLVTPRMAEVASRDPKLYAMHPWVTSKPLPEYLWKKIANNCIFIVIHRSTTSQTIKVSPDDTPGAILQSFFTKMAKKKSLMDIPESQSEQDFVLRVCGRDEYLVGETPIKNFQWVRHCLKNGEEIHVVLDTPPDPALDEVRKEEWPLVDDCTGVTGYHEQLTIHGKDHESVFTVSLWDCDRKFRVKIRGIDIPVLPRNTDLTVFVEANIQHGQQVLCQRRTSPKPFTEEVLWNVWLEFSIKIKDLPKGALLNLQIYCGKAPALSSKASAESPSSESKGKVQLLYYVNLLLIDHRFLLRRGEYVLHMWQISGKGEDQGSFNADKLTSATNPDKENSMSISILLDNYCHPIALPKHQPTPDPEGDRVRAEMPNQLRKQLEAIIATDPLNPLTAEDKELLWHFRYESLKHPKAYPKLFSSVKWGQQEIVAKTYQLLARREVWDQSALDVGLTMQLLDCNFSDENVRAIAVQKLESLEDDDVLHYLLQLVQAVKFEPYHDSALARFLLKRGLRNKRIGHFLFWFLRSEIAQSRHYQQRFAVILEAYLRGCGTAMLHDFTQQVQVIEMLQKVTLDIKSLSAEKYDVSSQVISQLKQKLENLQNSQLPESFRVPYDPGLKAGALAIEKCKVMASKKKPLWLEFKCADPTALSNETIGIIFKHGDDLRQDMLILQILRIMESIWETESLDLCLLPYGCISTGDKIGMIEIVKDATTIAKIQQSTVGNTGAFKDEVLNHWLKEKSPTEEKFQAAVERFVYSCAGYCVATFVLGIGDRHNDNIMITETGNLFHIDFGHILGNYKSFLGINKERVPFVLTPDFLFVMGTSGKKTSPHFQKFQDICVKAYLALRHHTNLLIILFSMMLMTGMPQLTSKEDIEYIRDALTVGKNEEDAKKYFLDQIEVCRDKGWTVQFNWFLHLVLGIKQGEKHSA
Chain of Cyclin-dependent kinase 9 (Homo sapiens) (P50750 whole entry): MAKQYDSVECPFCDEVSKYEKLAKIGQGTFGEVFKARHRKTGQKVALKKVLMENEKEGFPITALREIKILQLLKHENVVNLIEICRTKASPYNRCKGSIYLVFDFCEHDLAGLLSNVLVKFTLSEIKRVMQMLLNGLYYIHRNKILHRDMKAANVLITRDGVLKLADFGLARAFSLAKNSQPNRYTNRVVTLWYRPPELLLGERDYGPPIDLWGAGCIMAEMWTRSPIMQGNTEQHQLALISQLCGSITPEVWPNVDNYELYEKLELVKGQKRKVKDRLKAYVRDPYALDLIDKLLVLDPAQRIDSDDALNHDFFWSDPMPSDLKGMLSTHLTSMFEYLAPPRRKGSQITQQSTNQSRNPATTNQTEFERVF

As to `Nc1ccccc1Nc1ccc2c(c1)CCc1ccccc1C2=O`, the Activity in assay [1] worked out at 90%; in assay [2] it was 97%; in assay [3], 94%; in assay [4], 96%; in [5] it was 86%; in [6] it was 71%. In addition, the Activity in [7] worked out at 97%; in [8], 93%; in [9] it was 98%; in assay [10], 80%; in [11] it was 97%; in [12], 92%. The Activity in [13] was found to be 83%; in [14], 90%; in assay [15], 83%; in assay [16], 98%; in [17] it was 83%; in [18], 97%. Moreover, the Activity came to 88% in assay [19], 97% in [20], 98% in assay [21] and 95% in assay [22].

As to `O=C1c2ccc(Nc3ccc(F)cc3F)cc2CCc2ccc(OC[C@H](O)CO)cc21` [Skepinone-L], the Activity in assay [1] came to 90%; in assay [2] it was 98%; in assay [3], 82%; in assay [4] it was 100%; in assay [5] it was 100%; in assay [6] it was 97%. The Activity in assay [7] came to 93%; in assay [8], 100%; in assay [9], 100%; in [10], 100%; in [11] it was 75%; in assay [12], 93%. Moreover, the Activity is 93% in [13]; 79% in [14]; 99% in assay [15]; 98% in assay [16]; 58% in [17]; 98% in [18]. Further, the Activity in assay [19] is 100%; in assay [20] it was 100%; in assay [21] it was 97%; in assay [22], 100%.
